Data on 3 compounds can be found in paper PMC11672316, “Identification of ANXA1 as a Novel Upstream Negative Regulator of Notch1 Function in AML” (Advanced Science, 2024).

What all share (assay type): cell-based, human
Assay [1] relates to KG1a cells. Description: MTT assay, KG1a (FPR blocking or activation). The note with it: Figure S14, three independent experiments. Here is the method:
(§1) For Methylthiazolyldiphenyl-tetrazolium bromide (MTT) assay, cells were seeded in a 96-well plate and incubated with drugs or peptides. At the indicated time point, each well was added with 10 μL MTT solution (5 mg mL^-1, Sigma-Aldrich) and then incubated at 37°C in 5% CO2 for 4 hours. The medium was replaced by DMSO with 150 μL to dissolve the formazan crystals.
(In general: Tetrazolium assays rely on reduction of a dye to a coloured formazan, in cell work by metabolically active cells.)

Assay [2] deals with HL60 cells. Description: MTT assay, HL60 (FPR blocking or activation). The note with it: Figure S14, three independent experiments. As to the method:
as §1

The subject of assay [3] is p15. Description: Western blotting of p15 after RO4929097 treatment. The note with it: 24 h, Figure 4D. Here is the method:
(§2) Cells were lysed in a lysis buffer containing 0.5 mM EDTA, 20 mM HEPES and 2% SDS. Samples mixed with SDS-gel loading buffer were loaded onto SDS-PAGE gel and transferred onto polyvinylidene fluoride (PVDF) microporous membranes (Millipore). Membranes were blocked with 5% nonfat milk in TBST (20 mM Tris-HCl, 150 mM NaCl, 0.1% Tween-20 with pH 7.5) for 2 hours and incubated with primary antibodies (Table S6, Supporting Information) at 4°C overnight. The membranes were incubated with a secondary antibody (Table S6, Supporting Information) followed by detection in an imaging system (ChampChemi 910, SageCreation) using the ECL reagent solution (SageCreation).

Assay [4] has as its system KG1a-shANXA1 cells. As to the kind of experiment: Cell counting proliferation assay, KG1a-shANXA1. The settings on record: 24 h, Figure 4E, three independent experiments. Here is the method:
(§3) For the cell counting assay, transfected cell lines or parental cells were seeded in a cell culture plate at the same density and cultured with RPMI-1640 medium, which sometimes added drugs. The number of cells was counted by a cell counter (Countstar BioTech IC 1000, Countstar) after indicated time.

Assay [5] deals with HL60-shANXA1 cells. Description: Cell counting proliferation assay, HL60-shANXA1. The note with it: 24 h, Figure 4E, three independent experiments. Here is the method: as §3
The test system of assay [6] is NICD. As to the kind of experiment: Western blotting of NICD after MG132 treatment. The note with it: AML cells (KG1a and HL60). As to the method:
as §2
For orientation: In western blotting, separated proteins are transferred to a membrane and probed.

Assay [7] relates to NICD. As to the kind of experiment: Co-immunoprecipitation, NICD-bound ubiquitin. The note with it: KG1a- and HL60- shANXA1 or shControl cells; MG132 0 or 6 h; Figure 3C. Here is the method:
For co-immunoprecipitation (Co-IP) assay, the cells were lysed with NP-40 lysis buffer (Beyotime) containing 1 mM PMSF for 30 min at 4°C. The total protein concentrations were measured using BCA protein assay kit (Solarbio) according to the instructions. The lysates were divided into several tubes and precleared by adding protein A/G-agarose (Santa Cruz) for 30 min at 4°C. The samples were centrifuged to remove the precipitation and incubated with Notch1 antibody or normal rabbit IgG (Table S6, Supporting Information) for 2 hours, and then incubated with protein A/G-agarose overnight. The complexes were washed with NP-40 lysis buffer four times before being eluted in SDS-gel loading buffer and detected by western blotting.

Ends that are not written are not given here. Peptide text beside a SMILES is read from it. * marks the point of attachment. Cbz = O=C(OCc1ccccc1)*

On to “Ac2-26: N-terminal ANXA1 peptide, FPR agonist (Ac-AMVSEFLKQAWFIENEEQEYVQTVK; UniProt P04083 2-26, looked up, fragment)”, for which the “effect on proliferation” value in assay [1] and in assay [2] was “neither the FPR antagonist nor the N‐terminal ANXA1 peptide Ac2‐26 affected the proliferation of AML cells” each time.
As to `CC(C)(C(=O)NCC(F)(F)C(F)(F)F)C(=O)N[C@@H]1C(=O)Nc2ccccc2-c2ccccc21` [RO4929097], the “p15 expression” value in assay [3] (HL60 with ANXA1 knockdown) was “inhibited the expression of p15 in KG1a and HL60 cells with ANXA1 knockdown”; in assay [3] (KG1a with ANXA1 knockdown) it was “inhibited the expression of p15 in KG1a and HL60 cells with ANXA1 knockdown”. Further, the “cell proliferation” value in assay [4] and in assay [5] was “promoting the proliferation of AML cells” throughout.
With `CC(C)C[C@@H](C=O)NC(=O)[C@H](CC(C)C)NC(=O)[C@H](CC(C)C)NC(=O)OCc1ccccc1` [MG132] (Cbz-Leu-Leu-Leu-aldehyde), in assay [6] (ANXA1 knockdown group), the “NICD expression level” value is recorded as “minimally affected the expression level of NICD in the ANXA1 knockdown group”. For the same compound, in assay [6] (shControl, 3 h), the “NICD degradation” value is “significantly reversed the ANXA1‐induced NICD degradation after 3 h of treatment in the control group”. The “ubiquitin bound to NICD” value in assay [7] was “ubiquitin was bound to NICD significantly in the shControl cells after MG132 treatment rather than ANXA1 knockdown cells”.
